Experimental data published in patent US8168232B2, “Formulations and methods of using nitric oxide mimetics in cancer treatment” (priority 2000, dated 2012).

How the values were obtained:
HIF-1 = HIF-1 accumulation and transactivating activity; type: cell-based; settings: high concentrations (0.1-1 mM); preliminary studies
Source text: The promotor region of uPAR contains binding sites for transcription factors such as activator protein-1 (AP-1), Sp-1/3 and nuclear factor κB (NFκB).

[1] = system: MDA-MB-231 breast cancer cells; test: Colony formation assay for doxorubicin resistance, MDA-MB-231 monolayer; type: cell-based, human
Procedure: The resistance of MDA-MB-231 breast cancer cells to doxorubicin was determined following culture in 20% or 1% oxygen by counting the number of colonies formed. MDA-MB-231 cells were incubated in 1% O2 or 20% O2 for 24 hours. […] The cells were washed and then plated onto 35 mm plates at different dilutions. The cells were incubated for an additional 1-2 weeks in order to allow cell colonies to grow. At the end of the incubation period, the cells were fixed with Carnoy's fixative, stained with Crystal violet, rinsed and allowed to air dry. Colonies were counted visually. The surviving cells under each condition was determined by counting the number of colonies and was expressed as a fraction of the number of colonies that survived without doxorubicin exposure.
Using human MDA-MB-231 breast carcinoma cells in clonogenic assays, survival was determined following doxorubicin exposure and NO mimetic administration to both monolayer and spheroid cultures. […] However, these NO mimetics effectively attenuated the resistance to 200 μM doxorubicin associated with 3D culture by 90% and 30% respectively.

uPAR mRNA = test: Northern blot analysis of uPAR mRNA in MDA-MB-231 breast carcinoma cells; type: cell-based, human

SMILES: O=[N+]([O-])OCC(CO[N+](=O)[O-])O[N+](=O)[O-] [GTN, glyceryl trinitrate]
- HIF-1 accumulation and transactivating activity (HIF-1): inhibit HIF-1 accumulation and transactivating activity
- doxorubicin survival rates vs untreated hypoxic cells ([1]; hypoxic cells, 10^−6 M and 10^−10 M GTN): lower doxorubicin survival rates
- attenuation of hypoxia-induced resistance to doxorubicin ([1]; monolayer cells in 1% O2, GTN 1 μM): 50%
- effect of DFO on uPAR mRNA expression (uPAR mRNA; 1 μM of GTN): not prevented
- uPAR mRNA levels vs untreated hypoxic cells (uPAR mRNA; 1% O2, SNP 10^−12 M, GTN 10^−11 M and 10^−10 M): significantly reduced
- hypoxic upregulation of uPAR mRNA expression (uPAR mRNA; GTN 1 μM): prevented
- effect of hypoxia on uPAR mRNA when ODQ also present (uPAR mRNA; GTN 1 μM with ODQ 0.5 μM): unable to block
- inhibition of DFO (100 μM)-induced upregulation of uPAR (uPAR mRNA; GTN (10^−10 M, 10^−6 M)): could not be inhibited
- hypoxia-mediated increase in uPAR mRNA levels (uPAR mRNA; GTN (a pM) as printed): inhibited
- uPAR transcript levels vs 20% O2 alone (uPAR mRNA; combination of L-NMMA (0.5 mM) and GTN (0.1 nM), 20% O2): no significant increase
